# Results reported in patent US20250235508A1, “MODIFIED THERAPEUTIC AGENTS AND COMPOSITIONS THEREOF” (THE SCRIPPS RESEARCH INSTITUTE, priority 2015, published 2025).
# pEC50: −log10 of the molar value. Starred links: 1 amine or outer side, 2 acyl side, 3 side chain; linkers in the order of their positions; H or OH if unused. Positions of bridges follow the written chain, without caps; N, C: chain ends. Non-standard residues stand in square brackets, D forms with d. Residues, ends and D or L forms follow the SMILES beside them. Glutaryl = O=C(CCCC(=O)[*:2])[*:1]
# How the values were obtained:
# [1] = biological target: T1, human glucagon receptor (GCGR) (Homo sapiens, UniProt P47871); experiment: GCGR receptor-mediated CRE Luc reporter assay (receptor-mediated cAMP synthesis); type: cell-based; conditions: HEK293-GCGR-CRE cells, luciferase reporter
# T1 construct: expressed in transfected cells; host or cells: HEK293 (CRE-HEK293)
# T1 sequence (P47871 26-477): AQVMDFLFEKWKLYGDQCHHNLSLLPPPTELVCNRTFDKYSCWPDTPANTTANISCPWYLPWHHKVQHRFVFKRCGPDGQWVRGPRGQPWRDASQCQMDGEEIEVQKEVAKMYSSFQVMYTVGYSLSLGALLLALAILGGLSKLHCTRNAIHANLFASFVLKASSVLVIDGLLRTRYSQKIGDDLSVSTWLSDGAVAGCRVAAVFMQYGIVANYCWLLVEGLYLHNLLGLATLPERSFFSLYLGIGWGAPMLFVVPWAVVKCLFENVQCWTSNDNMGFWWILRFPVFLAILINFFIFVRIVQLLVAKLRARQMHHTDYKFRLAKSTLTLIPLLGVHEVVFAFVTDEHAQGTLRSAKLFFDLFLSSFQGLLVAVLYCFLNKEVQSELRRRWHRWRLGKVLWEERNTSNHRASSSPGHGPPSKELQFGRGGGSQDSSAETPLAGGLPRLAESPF
# Procedure: (§1) CREB responsive luciferase stable HEK 293 cell line overexpressing human glucagon receptor (GCGR), glucagon-like peptide 1 receptor (GLP-1R), glucose-dependent insulinotropic polypeptide receptor (GIPR), glucagon-like peptide 2 receptor (GLP-2R) was generated as follows. HEK293 cells were infected with lent virus encoding firefly luciferase gene under the control of CRE promoter, as described in the manual (Qiagen, Netherlands) and then were selected using 1 μg/mL puromycin (Life technologies, Carlsbad) for 1 week. The survived cells were named as CRE-HEK293, expanded and then transfected with a G418 selective mammalian expression plasmid encoding human GCGR, GLP-1R, GIPR or GLP-2R. In brief, GCGR, GLP-1R, GIPR, or GLP-2R plasmid was transfected into CRE-HEK293 cells using Lipofectamine 2000 and selected with 400 μg/mL geneticin (Life technologies, Carlsbad, CA). Single colony stable cell lines overexpressing both CRE-luciferase and GCGR, GLP-1R, GIPR, or GLP-2R were then established for in vitro activity assays. […] On the next day, 10 μl of Bright-Glo reagent (Promega, Madison, WI) were added into each well and firefly luminescence was determined using an Envision multilabel plate reader (PerkinElmer, Waltham, MA). EC50 of each peptide was calculated using GraphPad Prism 6 software (GraphPad, San Diego, CA). […]
# [2] = biological target: T2, human glucagon-like peptide 1 receptor (GLP-1R) (Homo sapiens, UniProt P43220); experiment: GLP-1R receptor-mediated CRE Luc reporter assay (receptor-mediated cAMP synthesis); type: cell-based; conditions: HEK293-GLP-1R-CRE cells, luciferase reporter
# T2 construct: expressed in transfected cells; host or cells: HEK293 (CRE-HEK293)
# T2 sequence (P43220 24-463): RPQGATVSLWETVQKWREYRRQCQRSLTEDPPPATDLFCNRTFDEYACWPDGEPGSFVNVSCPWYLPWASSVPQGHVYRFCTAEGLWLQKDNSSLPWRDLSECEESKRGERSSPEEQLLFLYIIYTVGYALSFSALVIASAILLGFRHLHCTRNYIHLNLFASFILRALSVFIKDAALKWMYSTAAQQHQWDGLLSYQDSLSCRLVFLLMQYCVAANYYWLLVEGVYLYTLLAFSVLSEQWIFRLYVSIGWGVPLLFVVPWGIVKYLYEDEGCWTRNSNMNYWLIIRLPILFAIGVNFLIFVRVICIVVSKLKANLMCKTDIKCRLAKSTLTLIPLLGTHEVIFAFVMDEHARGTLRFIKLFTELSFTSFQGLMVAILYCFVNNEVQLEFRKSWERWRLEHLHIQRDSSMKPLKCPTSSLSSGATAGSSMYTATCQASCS
# Procedure: HEK293 cells were infected with lent virus encoding firefly luciferase gene under the control of CRE promoter, as described in the manual (Qiagen, Netherlands) and then were selected using 1 μg/mL puromycin (Life technologies, Carlsbad) for 1 week. The survived cells were named as CRE-HEK293, expanded and then transfected with a G418 selective mammalian expression plasmid encoding human GCGR, GLP-1R, GIPR or GLP-2R. […] Single colony stable cell lines overexpressing both CRE-luciferase and GCGR, GLP-1R, GIPR, or GLP-2R were then established for in vitro activity assays. These four stable cell lines were named as HEK293-GCGR-CRE, HEK293-GLP-1R-CRE, HEK293-GIPR-CRE, and HEK293-GLP-2R-CRE. […] Cells were treated with different peptides in a dose dependent manner.
# [3] = In vivo pharmacokinetic (PK) study in CD-1 mice; conditions: female, CD-1, mouse, plasma, 0.3 mg/kg
# Procedure: (§2) Female CD-1 mice obtained from Charles River Limited were used after overnight food deprivation for in vivo PK study. Peptides were dissolved in pH adjusted Phosphate buffered saline (PBS). 100 μL of each peptide (0.3 mg/kg) was administrated into each mouse through either i.v. or s.c route. Food was provided to mice immediately after bleeding at 30 minute. Blood were extracted into heparinized tubes and centrifuged at 3,000×g for 15 min. The resulting supernatant plasma were then stored at −80° C. for activity assays. The concentrations of peptides in plasma at each time point were determined by activity assay described above and in vivo half-life of each peptide was calculated by using Winnonlin Phoenix software (Pharsight Corp, St. Louis, MO).
# [4] = biological target: T3, human glucagon-like peptide 2 receptor (GLP-2R) (Homo sapiens, UniProt O95838); experiment: GLP-2R receptor-mediated CRE Luc reporter assay (receptor-mediated cAMP synthesis); type: cell-based; conditions: HEK293-GLP-2R-CRE cells, luciferase reporter
# T3 construct: expressed in transfected cells; host or cells: HEK293 (CRE-HEK293)
# T3 sequence (O95838 1-553): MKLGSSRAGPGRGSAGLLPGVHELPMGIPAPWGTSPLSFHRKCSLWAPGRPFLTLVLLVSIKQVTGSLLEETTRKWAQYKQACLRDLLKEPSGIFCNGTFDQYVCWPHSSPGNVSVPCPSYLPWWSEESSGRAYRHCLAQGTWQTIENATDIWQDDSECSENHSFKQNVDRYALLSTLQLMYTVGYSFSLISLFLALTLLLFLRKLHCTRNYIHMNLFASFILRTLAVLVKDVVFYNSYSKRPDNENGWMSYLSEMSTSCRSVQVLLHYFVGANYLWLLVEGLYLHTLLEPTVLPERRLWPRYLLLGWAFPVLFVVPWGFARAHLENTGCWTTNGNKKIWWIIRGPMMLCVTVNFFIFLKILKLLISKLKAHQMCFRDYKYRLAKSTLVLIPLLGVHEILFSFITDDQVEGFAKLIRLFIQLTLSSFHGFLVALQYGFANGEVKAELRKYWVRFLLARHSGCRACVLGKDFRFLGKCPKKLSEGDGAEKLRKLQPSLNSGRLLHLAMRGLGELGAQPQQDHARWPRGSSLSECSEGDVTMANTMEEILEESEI
# Procedure: as §1
# in vivo = conditions: female, CD-1, mouse, 0.3 mg/kg
# Procedure: as §2
half-life ([3]; iv),half-life ([3]; sc),pEC50 [4],half-life (in vivo; iv),half-life (in vivo; sc),SMILES,pEC50 [1],pEC50 [2]
–,–,–,–,–,CC[C@H](C)[C@@H]1NC(=O)[C@H](Cc2ccccc2)NC(=O)[C@H](CCC(=O)O)NC(=O)[C@H](CCCCN)NC(=O)[C@H](C)NC(=O)[C@H](C)NC(=O)[C@@H](NC(=O)[C@H](CCC(=O)O)NC(=O)[C@H](CC(=O)O)NC(=O)[C@H](CC(C)C)NC(=O)[C@H](Cc2ccc(O)cc2)NC(=O)[C@H](CCCCN)NC(=O)[C@H](CO)NC(=O)[C@H](Cc2ccc(O)cc2)NC(=O)[C@H](CC(=O)O)NC(=O)[C@H](CO)NC(=O)[C@@H](NC(=O)[C@H](Cc2ccccc2)NC(=O)[C@@H](NC(=O)CNC(=O)[C@H](CCC(N)=O)NC(=O)[C@@H](CO)NC(=O)[C@@H](N)Cc2c[nH]cn2)[C@@H](C)O)[C@@H](C)O)CCCCNC(=O)CCCC(=O)NCCCC[C@@H](C(=O)N[C@@H](Cc2c[nH]c3ccccc23)C(=O)N[C@@H](CC(C)C)C(=O)N[C@@H](CC(C)C)C(=O)N[C@@H](CC(N)=O)C(=O)NCC(=O)NCC(=O)N2CCC[C@H]2C(=O)N[C@@H](CO)C(=O)N[C@@H](CO)C(=O)NCC(=O)N[C@@H](C)C(=O)N2CCC[C@H]2C(=O)N2CCC[C@H]2C(=O)N2CCC[C@H]2C(=O)N[C@@H](CO)C(N)=O)NC1=O [mTA5] (H-H[dS]QGTFTSDYSKYLDEKAAKEFIKWLLNGGPSSGAPPPS-NH2; linker 17-24 via Glutaryl),10.15,10.70
3 h,4 h,10.17,–,–,CCCCCCCCCCCCCC(=O)NCCOCCOCCOCCC(=O)NCCC(=O)N1CC(=O)NCCCC[C@@H](C(=O)N[C@@H](C)C(=O)N[C@@H](CCCNC(=N)N)C(=O)N[C@@H](CC(=O)O)C(=O)N[C@@H](Cc2ccccc2)C(=O)N[C@H](C(=O)N[C@@H](CC(N)=O)C(=O)N[C@@H](Cc2c[nH]c3ccccc23)C(=O)N[C@@H](CC(C)C)C(=O)N[C@H](C(=O)N[C@@H](CCC(N)=O)C(=O)N[C@H](C(=O)N[C@@H](CCCCN)C(=O)N[C@H](C(=O)N[C@H](C(=O)N[C@@H](CC(=O)O)C(N)=O)[C@@H](C)O)[C@@H](C)CC)[C@@H](C)O)[C@@H](C)CC)[C@@H](C)CC)NC(=O)[C@H](CC(C)C)NC(=O)[C@H](CC(N)=O)NC(=O)[C@H](CC(=O)O)NC(=O)[C@H](CC(C)C)NC(=O)[C@H]([C@@H](C)CC)NC(=O)[C@H]([C@@H](C)O)NC(=O)[C@@H](NC(=O)[C@H](CCSC)NC(=O)[C@H](CCC(=O)O)NC(=O)[C@H](CC(=O)O)NC(=O)[C@H](CO)NC(=O)[C@H](Cc2ccccc2)NC(=O)[C@H](CO)NC(=O)CNC(=O)[C@H](CC(=O)O)NC(=O)CNC(=O)[C@@H](N)Cc2c[nH]cn2)CCCCNC(=O)C1 [mTA7],–,–
–,–,–,5.7 h,8 h,CC[C@H](C)[C@@H]1NC(=O)[C@H](Cc2ccccc2)NC(=O)[C@H](CCC(=O)O)NC(=O)[C@H](CCCCN)NC(=O)[C@H](C)NC(=O)[C@H](C)NC(=O)[C@@H](NC(=O)[C@H](CCC(=O)O)NC(=O)[C@H](CC(=O)O)NC(=O)[C@H](CC(C)C)NC(=O)[C@H](Cc2ccc(O)cc2)NC(=O)[C@H](CCCCN)NC(=O)[C@H](CO)NC(=O)[C@H](Cc2ccc(O)cc2)NC(=O)[C@H](CC(=O)O)NC(=O)[C@H](CO)NC(=O)[C@@H](NC(=O)[C@H](Cc2ccccc2)NC(=O)[C@@H](NC(=O)CNC(=O)[C@H](CCC(N)=O)NC(=O)[C@@H](CO)NC(=O)[C@@H](N)Cc2c[nH]cn2)[C@@H](C)O)[C@@H](C)O)CCCCNC(=O)CN(C(=O)CCNC(=O)CCOCCOCCOCCNC(=O)CCCCCCCCCCCCCCCCC(=O)O)CC(=O)NCCCC[C@@H](C(=O)N[C@@H](Cc2c[nH]c3ccccc23)C(=O)N[C@@H](CC(C)C)C(=O)N[C@@H](CC(C)C)C(=O)N[C@@H](CCCNC(=N)N)C(=O)N[C@@H](C)C(N)=O)NC1=O [mTA4],9.82,10.52
